Reference: US10385024B2, “Compounds and methods for inhibiting NHE-mediated antiport in the treatment of disorders associated with fluid retention or salt overload and gastrointestinal tract disorders” (Ardelyx, Inc., priority 2012, dated 2019)

What was measured:
Rat NHE-3 = biological target: T1, Rat NHE-3 (Rattus norvegicus, UniProt P26433); assay: Cell-based assay of NHE-3 activity (persistent inhibition, after washout); details: OK cells with rat NHE-3 gene, 60 min incubation, recovery initiated 40 min after compound washout; for IC50: read-out: Rat NHE3 pIC50 (persistent) (converted)
T1 construct: expressed in transfected cells; host or cells: Opossum kidney (OK) cells (ATCC), transfected by electroporation
Outline: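 OK cells transiently expressing rat NHE-3 were exposed to 0-30 μM compound in NaCl-HEPES pH 7.4 for 60 min, then washed free of drug before NH4Cl/BCECF-AM loading and acid-loading in Na+-free choline buffer. Na+-dependent pH recovery rates (mean of ≥2 replicates) gave pIC50.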

[1] = system: absorption of sodium from the intestinal lumen; assay: Inhibition of intestinal sodium absorption (urinary sodium and fecal form); assay type: in vivo, Sprague-Dawley rats; details: rat; for response vs control in vivo at 3 mg/kg: 3 mg/kg oral gavage, urine 16 h post-dose, asterisks = significance vs vehicle (*P<0.05, **P<0.01, ***P<0.001), read-out: uNa (% of vehicle)
Outline: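 Sprague-Dawley rats (8 weeks, n=6) dosed by oral gavage with compound or water vehicle (10 mL/kg) in late afternoon, then housed in metabolic cages. Over 16 h, urinary sodium measured by ion chromatography and expressed as % of vehicle mean; fecal form scored 1–5, averaged from two observations.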

Fecal recovery = assay type: in vivo, Sprague Dawley rats; details: rat, 1 mg/kg oral gavage; for dose excreted: male, Sprague-Dawley, faeces
Protocol: Three male Sprague Dawley rats were administered 1 mg/kg test compound by oral gavage. Feces were collected from study animals from 0-48 or 0-72 hours after dosing, dried by lyophilization, and homogenized. Replicate aliquots of 40-60 mg each were subjected to extraction/protein precipitation with 7:1 acetonitrile:water and centrifuged. Supernatants were diluted 1:10 in 50:50 acetonitrile:water prior to analysis by LC-MS/MS. Compound concentrations, determined by interpolation from a standard calibration curve prepared in blank feces matrix, were converted to the percentage of dosed material recovered by taking into account the total collected fecal matter. The percent recovery for each rat was reported as the mean of the calculations from replicate samples. The overall percent recovery (Fecal Recovery [%]) was reported as the mean percent recovery from three rats. Accurate quality control sample recoveries were confirmed in each run, and extraction efficiency was periodically verified.

T1 sequence (P26433 29-831): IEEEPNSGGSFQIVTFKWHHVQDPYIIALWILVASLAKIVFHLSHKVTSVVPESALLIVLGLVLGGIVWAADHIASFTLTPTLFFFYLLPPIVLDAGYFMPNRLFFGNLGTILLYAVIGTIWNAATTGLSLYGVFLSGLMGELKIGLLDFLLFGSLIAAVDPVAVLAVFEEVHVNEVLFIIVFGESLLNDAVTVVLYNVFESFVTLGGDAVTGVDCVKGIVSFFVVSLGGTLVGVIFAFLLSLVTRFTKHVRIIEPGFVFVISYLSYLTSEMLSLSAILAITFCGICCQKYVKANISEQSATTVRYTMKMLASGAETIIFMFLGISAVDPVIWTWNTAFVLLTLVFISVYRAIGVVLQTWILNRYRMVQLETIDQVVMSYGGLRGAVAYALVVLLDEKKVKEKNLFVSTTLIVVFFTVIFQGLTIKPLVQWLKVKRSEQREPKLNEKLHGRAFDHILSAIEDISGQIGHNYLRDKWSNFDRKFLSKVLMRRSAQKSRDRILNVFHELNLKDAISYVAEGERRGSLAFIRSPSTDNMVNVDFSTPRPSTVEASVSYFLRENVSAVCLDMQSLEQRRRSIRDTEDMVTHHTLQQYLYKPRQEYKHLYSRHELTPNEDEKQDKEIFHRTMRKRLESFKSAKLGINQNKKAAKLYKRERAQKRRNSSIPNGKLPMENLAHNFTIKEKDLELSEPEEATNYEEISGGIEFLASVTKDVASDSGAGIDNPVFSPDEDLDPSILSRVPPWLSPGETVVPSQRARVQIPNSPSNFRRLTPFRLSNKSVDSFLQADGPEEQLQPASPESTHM

SMILES | IC50 (Rat NHE-3) [nM] | response vs control in vivo at 3 mg/kg [1] [%] | dose excreted (Fecal recovery; collection time 48 h) [%] | dose excreted (Fecal recovery; collection time 72 h) [%] | FFS ([1]; fecal form score, scale 1 (normal pellet) to 5 (liquid fecal streams), group average, 3 mg/kg oral, 16 h post-dose, vehicle = 1) | Rat NHE3 pIC50 (persistent) (Rat NHE-3) | Fecal Recovery (Fecal recovery; collection time 48 h) [%]
CN1Cc2c(Cl)cc(Cl)cc2[C@H](c2cccc(S(=O)(=O)NCCOCCOCCNC(=O)CCC(N)(CCC(=O)NCCOCCOCCNS(=O)(=O)c3cccc([C@@H]4CN(C)Cc5c(Cl)cc(Cl)cc54)c3)CCC(=O)NCCOCCOCCNS(=O)(=O)c3cccc([C@@H]4CN(C)Cc5c(Cl)cc(Cl)cc54)c3)c2)C1 [Example 2, 4-amino-N^1,N^7-bis(2-(2-(2-(3-((S)-6,8-dichloro-2-methyl-1,2,3,4-tetrahydroisoquinolin-4-yl)phenylsulfonamido)ethoxy)ethoxy)ethyl)-4-(3-(2-(2-(2-(3-((S)-6,8-dichloro-2-methyl-1,2,3,4-tetrahydroisoquinolin-4-yl)phenylsulfonamido)ethoxy)ethoxy)ethylamino)-3-oxopropyl)heptanediamide] | < 100 | < 35 | 87 | – | – | – | –
CN1Cc2c(Cl)cc(Cl)cc2[C@H](c2cccc(S(=O)(=O)NCCOCCOCCNC(=O)CCC(CCC(=O)NCCOCCOCCNS(=O)(=O)c3cccc([C@@H]4CN(C)Cc5c(Cl)cc(Cl)cc54)c3)(CCC(=O)NCCOCCOCCNS(=O)(=O)c3cccc([C@@H]4CN(C)Cc5c(Cl)cc(Cl)cc54)c3)NC(=O)NCCS(=O)(=O)O)c2)C1 [Example 3] | < 100 | < 35 | – | 110 | – | – | –
CN1Cc2c(Cl)cc(Cl)cc2[C@H](c2cccc(S(=O)(=O)NCCOCCOCCNC(=O)CCC(CCC(=O)NCCOCCOCCNS(=O)(=O)c3cccc([C@@H]4CN(C)Cc5c(Cl)cc(Cl)cc54)c3)(CCC(=O)NCCOCCOCCNS(=O)(=O)c3cccc([C@@H]4CN(C)Cc5c(Cl)cc(Cl)cc54)c3)N(C)C)c2)C1 [Example 4, N^1,N^7-bis(2-(2-(2-(3-((S)-6,8-dichloro-2-methyl-1,2,3,4-tetrahydroisoquinolin-4-yl)phenylsulfonamido)ethoxy)ethoxy)ethyl)-4-(3-(2-(2-(2-(3-((S)-6,8-dichloro-2-methyl-1,2,3,4-tetrahydroisoquinolin-4-yl)phenylsulfonamido)ethoxy)ethoxy)ethylamino)-3-oxopropyl)-4-(dimethylamino)heptanediamide] | < 100 | < 35 | – | – | 2 | – | –
CN1Cc2c(Cl)cc(Cl)cc2[C@H](c2cccc(S(=O)(=O)NCCOCCOCCNC(=O)CCC(CCC(=O)NCCOCCOCCNS(=O)(=O)c3cccc([C@@H]4CN(C)Cc5c(Cl)cc(Cl)cc54)c3)(CCC(=O)NCCOCCOCCNS(=O)(=O)c3cccc([C@@H]4CN(C)Cc5c(Cl)cc(Cl)cc54)c3)NC(=O)COCC(=O)O)c2)C1 [Example 6, 1-(3-((S)-6,8-dichloro-2-methyl-1,2,3,4-tetrahydroisoquinolin-4-yl)phenylsulfonamido)-13,13-bis(3-(2-(2-(2-(3-((S)-6,8-dichloro-2-methyl-1,2,3,4-tetrahydroisoquinolin-4-yl)phenylsulfonamido)ethoxy)ethoxy)ethylamino)-3-oxopropyl)-10,15-dioxo-3,6,17-trioxa-9,14-diazanonadecan-19-oic Acid] | < 100 | < 35 | 51.5 | – | – | – | –
CN1Cc2c(Cl)cc(Cl)cc2[C@H](c2cccc(S(=O)(=O)NCCOCCOCCNC(=O)CCC(CCC(=O)NCCOCCOCCNS(=O)(=O)c3cccc([C@@H]4CN(C)Cc5c(Cl)cc(Cl)cc54)c3)(CCC(=O)NCCOCCOCCNS(=O)(=O)c3cccc([C@@H]4CN(C)Cc5c(Cl)cc(Cl)cc54)c3)NC(=O)NCC(=O)O)c2)C1 [Example 7, 18-(3-((S)-6,8-dichloro-2-methyl-1,2,3,4-tetrahydroisoquinolin-4-yl)phenylsulfonamido)-6,6-bis(3-(2-(2-(2-(3-((S)-6,8-dichloro-2-methyl-1,2,3,4-tetrahydroisoquinolin-4-yl)phenylsulfonamido)ethoxy)ethoxy)ethylamino)-3-oxopropyl)-4,9-dioxo-13,16-dioxa-3,5,10-triazaoctadecan-1-oic acid] | < 100 | < 35 | 83.2 | – | – | – | –
CN1Cc2c(Cl)cc(Cl)cc2[C@H](c2cccc(S(=O)(=O)NCCOCCOCCNC(=O)CCC(CCC(=O)NCCOCCOCCNS(=O)(=O)c3cccc([C@@H]4CN(C)Cc5c(Cl)cc(Cl)cc54)c3)(CCC(=O)NCCOCCOCCNS(=O)(=O)c3cccc([C@@H]4CN(C)Cc5c(Cl)cc(Cl)cc54)c3)NC(=O)NC(CO)(CO)CO)c2)C1 [Example 11, N^1,N^7-bis(2-(2-(2-(3-((S)-6,8-dichloro-2-methyl-1,2,3,4-tetrahydroisoquinolin-4-yl)phenylsulfonamido)ethoxy)ethoxy)ethyl)-4-(3-(2-(2-(2-(3-((S)-6,8-dichloro-2-methyl-1,2,3,4-tetrahydroisoquinolin-4-yl)phenylsulfonamido)ethoxy)ethoxy)ethylamino)-3-oxopropyl)-4-(3-(1,3-dihydroxy-2-(hydroxymethyl)propan-2-yl)ureido)heptanediamide] | < 100 | 35 to 75 | 64.1 | – | – | – | –
CN(C)CC(=O)NC(CCC(=O)NCCOCCOCCNS(=O)(=O)c1cccc([C@@H]2CN(C)Cc3c(Cl)cc(Cl)cc32)c1)(CCC(=O)NCCOCCOCCNS(=O)(=O)c1cccc([C@@H]2CN(C)Cc3c(Cl)cc(Cl)cc32)c1)CCC(=O)NCCOCCOCCNS(=O)(=O)c1cccc([C@@H]2CN(C)Cc3c(Cl)cc(Cl)cc32)c1 [Example 14, N1,N7-bis(2-(2-(2-(3-((S)-6,8-dichloro-2-methyl-1,2,3,4-tetrahydroisoquinolin-4-yl)phenylsulfonamido)ethoxy)ethoxy)ethyl)-4-(3-(2-(2-(2-(3-((S)-6,8-dichloro-2-methyl-1,2,3,4-tetrahydroisoquinolin-4-yl)phenylsulfonamido)ethoxy)ethoxy)ethylamino)-3-oxopropyl)-4-(2-(dimethylamino)acetamido)heptanediamide] | < 100 | < 35 | – | 75.3 | – | – | –
CN1Cc2c(Cl)cc(Cl)cc2[C@H](c2cccc(S(=O)(=O)NCCOCCOCCNC(=O)CCC(CCC(=O)NCCOCCOCCNS(=O)(=O)c3cccc([C@@H]4CN(C)Cc5c(Cl)cc(Cl)cc54)c3)(CCC(=O)NCCOCCOCCNS(=O)(=O)c3cccc([C@@H]4CN(C)Cc5c(Cl)cc(Cl)cc54)c3)NC(=O)NCCN3CCOCC3)c2)C1 [Example 17, N^1,N^7-bis(2-(2-(2-(3-((S)-6,8-dichloro-2-methyl-1,2,3,4-tetrahydroisoquinolin-4-yl)phenylsulfonamido)ethoxy)ethoxy)ethyl)-4-(3-(2-(2-(2-(3-((S)-6,8-dichloro-2-methyl-1,2,3,4-tetrahydroisoquinolin-4-yl)phenylsulfonamido)ethoxy)ethoxy)ethylamino)-3-oxopropyl)-4-(3-(2-morpholinoethyl)ureido)heptanediamide] | < 100 | < 35 | – | 96.9 | – | – | –
CN1Cc2c(Cl)cc(Cl)cc2[C@H](c2cccc(S(=O)(=O)NCCOCCOCCNC(=O)CCC(CCC(=O)NCCOCCOCCNS(=O)(=O)c3cccc([C@@H]4CN(C)Cc5c(Cl)cc(Cl)cc54)c3)(CCC(=O)NCCOCCOCCNS(=O)(=O)c3cccc([C@@H]4CN(C)Cc5c(Cl)cc(Cl)cc54)c3)NC(=O)CCCC(=O)O)c2)C1 [Example 36] | – | < 35 | – | – | – | C (C NHE3 pIC50 > 7) | 68
CN1Cc2c(Cl)cc(Cl)cc2[C@H](c2cccc(S(=O)(=O)NCCOCCOCCNC(=O)CCC(CCC(=O)NCCOCCOCCNS(=O)(=O)c3cccc([C@@H]4CN(C)Cc5c(Cl)cc(Cl)cc54)c3)(CCC(=O)NCCOCCOCCNS(=O)(=O)c3cccc([C@@H]4CN(C)Cc5c(Cl)cc(Cl)cc54)c3)NC(=O)CCC(=O)O)c2)C1 [Example 40] | – | < 35 | – | – | – | C (C NHE3 pIC50 > 7) | 99.1
CN1Cc2c(Cl)cc(Cl)cc2[C@H](c2cccc(S(=O)(=O)NCCOCCOCCNC(=O)NCCCN(CCCNC(=O)NCCOCCOCCNS(=O)(=O)c3cccc([C@@H]4CN(C)Cc5c(Cl)cc(Cl)cc54)c3)CCCNC(=O)NCCOCCOCCNS(=O)(=O)c3cccc([C@@H]4CN(C)Cc5c(Cl)cc(Cl)cc54)c3)c2)C1 [Example 43, (S)—N,N′-(15-(1-(3-((S)-6,8-dichloro-2-methyl-1,2,3,4-tetrahydroisoquinolin-4-yl)phenylsulfonamido)-10-oxo-3,6-dioxa-9,11-diazatetradecan-14-yl)-10,20-dioxo-3,6,24,27-tetraoxa-9,11,15,19,21-pentaazanonacosane-1,29-diyl)bis(3-((S)-6,8-dichloro-2-methyl-1,2,3,4-tetrahydroisoquinolin-4-yl)benzenesulfonamide)] | < 100 | 35 to 75 | 53.8 | – | – | – | –
